{"source": "patent US20190100794A1", "about": "“Blood matrix metalloproteinase 9 (MMP9) is a predictive biomarker for cardiac diseases and disorders” (University of Rochester, priority 2017, published 2019)", "key": {"ERK5 in platelets": {"test_system": "ERK5 in platelets", "assay": "Platelet activation by FACS P-selectin expression after TRAP6 stimulation, with ERK5 inhibitor pre-incubation", "format": "cell-based, human", "details": "platelets from healthy volunteers or NSTEMI patients; BIX 02189 0-100 μM, 30 minutes; TRAP6 10 μM, 15 minutes; P<0.05", "procedure": "(FIG. 4A) All patients were given 325 mg aspirin at least 30 minutes prior to blood draw. Platelets were isolated from healthy volunteer subjects (control) or from patients with STEMI or NSTEMI. ERK5 activation was assessed by Western blotting using a phosphor-specific antibody (P-ERK5). A pan-ERK5 antibody was used to detect total ERK5 and the ratio (P-ERK5/ERK5) was used to report ERK5 activity as mean±SEM, n=10-13. *p<0.05 control vs. STEMI, **p=0.01 control vs NSTEMI. The molecular weight is indicated in kiloDaltons (kDa). (FIG. 4B) All patients were given 325-mg aspirin at least 30 minutes before blood draw. […] Platelet activation was assessed by fluorescence-activated cell sorting by P-selectin expression, mean fluorescence intensity (MFI)±SEM, all performed in quadruplicate in each group, n=4. *P<0.05 between NSTEMI/TRAP6 and NSTEMI/TRAP6+BIX 02189 and **P<0.05 control/TRAP6 and control/TRAP6+BIX 02189.\nFor each study subject, blood was obtained by a trained medical professional into citrate plasma tubes, then centrifuged in a tabletop centrifuge at 1100 rpm for 15 mins. […] This reaction was then stopped by adding 100 μL of 2% formalin to each reaction, and then quantification of platelet surface P-selectin was made possible using an Accuri Flow Cytometer (BD Biosciences) at 10K events per sample. […] Platelet surface p-selectin was quantified in quadruplicate using the geometric mean. […]"}, "[1]": {"target": "T1, platelet cyclooxygenase (COX) (Homo sapiens, UniProt P23219)", "T1 construct": "endogenous in cells; plasma TxB2 measured by ELISA", "T1 sequence (P23219 24-599)": "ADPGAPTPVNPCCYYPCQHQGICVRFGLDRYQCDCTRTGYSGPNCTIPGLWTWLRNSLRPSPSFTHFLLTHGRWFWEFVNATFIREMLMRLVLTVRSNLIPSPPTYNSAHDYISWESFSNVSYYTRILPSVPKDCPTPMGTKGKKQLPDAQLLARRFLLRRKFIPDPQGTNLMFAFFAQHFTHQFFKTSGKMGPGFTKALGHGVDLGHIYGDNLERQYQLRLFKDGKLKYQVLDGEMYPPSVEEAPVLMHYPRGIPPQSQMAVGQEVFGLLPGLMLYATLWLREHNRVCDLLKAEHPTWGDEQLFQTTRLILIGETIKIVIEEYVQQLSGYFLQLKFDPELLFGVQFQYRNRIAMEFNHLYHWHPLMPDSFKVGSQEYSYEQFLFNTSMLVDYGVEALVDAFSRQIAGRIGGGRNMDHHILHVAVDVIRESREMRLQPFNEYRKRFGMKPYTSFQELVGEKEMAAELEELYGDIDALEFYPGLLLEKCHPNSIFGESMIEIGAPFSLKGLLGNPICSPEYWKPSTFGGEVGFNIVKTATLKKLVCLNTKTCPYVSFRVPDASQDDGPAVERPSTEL", "assay": "Plasma TxB2 concentration by ELISA as marker of aspirin inhibition of platelet cyclooxygenase", "format": "in vivo", "details": "STEMI and NSTEMI patients given 325 mg aspirin at least 30 min before blood draw, versus healthy volunteers not treated with aspirin", "method": "Blood was taken from patients immediately upon presentation with STEMI or NSTEMI and compared to healthy volunteer subjects. Each patient had been given 325 mg aspirin at least 30 mins prior to the blood draw. Plasma was isolated and biomarker concentration was evaluated by ELISA. Plasma TxB2 concentration served as a surrogate marker to assess for differences in efficacy of aspirin between groups, comparing this to healthy volunteer subjects (control) not taking aspirin. […] ELISA=Enzyme-Linked Immunosorbant Assay.\nEach patient was treated with 325 mg aspirin in the ambulance, in the ED, or hospital least 30 minutes prior to blood draw.\nEnzyme-linked immunosorbant assays (ELISAs) were conducted according to the manufacturer's instructions using the sandwich ELISA technique. […] The ELISA for plasma thromboxane B2 (cat#501020) was purchased from Cayman Chemicals."}, "PAR1": {"target": "T2, PAR1 (Homo sapiens, UniProt P25116)", "T2 construct": "Thrombin-Receptor Antagonist Vorapaxar in Acute Coronary Syndromes (TRACER) study; host or cells: patients of a clinical trial (Tricoci P, et al., 2012, N Engl J Med)", "T2 sequence (P25116 22-425)": "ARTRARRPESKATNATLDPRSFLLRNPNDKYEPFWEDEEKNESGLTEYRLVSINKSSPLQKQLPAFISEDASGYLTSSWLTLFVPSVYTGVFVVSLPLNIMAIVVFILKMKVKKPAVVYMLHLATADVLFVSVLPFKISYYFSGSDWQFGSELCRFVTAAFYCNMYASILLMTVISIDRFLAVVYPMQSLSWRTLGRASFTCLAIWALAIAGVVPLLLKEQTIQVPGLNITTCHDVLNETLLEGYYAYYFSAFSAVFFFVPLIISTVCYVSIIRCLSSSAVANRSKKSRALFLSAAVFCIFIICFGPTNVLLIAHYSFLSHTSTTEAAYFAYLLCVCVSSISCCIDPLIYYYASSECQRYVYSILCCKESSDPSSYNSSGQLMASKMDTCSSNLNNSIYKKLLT", "details": "triple therapy of DAPT plus vorapaxar, cited from earlier work"}}, "data": [{"smiles": "CN(C)Cc1cccc(N/C(=C2\\C(=O)Nc3cc(C(=O)N(C)C)ccc32)c2ccccc2)c1", "note": "[BIX 02189]", "values": [{"measurement": "TRAP6-induced platelet activation (P-selectin expression, MFI)", "setting": "ERK5 in platelets", "value": "prevents platelet activation"}]}, {"smiles": "CC(=O)Oc1ccccc1C(=O)O", "note": "[aspirin]", "values": [{"measurement": "plasma TxB2 concentration", "setting": "[1]", "value": "decrease"}]}, {"smiles": "CCOC(=O)N[C@@H]1CC[C@@H]2[C@@H](C1)C[C@H]1C(=O)O[C@H](C)[C@H]1[C@H]2/C=C/c1ccc(-c2cccc(F)c2)cn1", "note": "[vorapaxar]", "values": [{"measurement": "relative reduction in the primary end point", "setting": "PAR1; nonsignificant", "value": 8, "unit": "%"}, {"measurement": "bleeding", "setting": "PAR1", "value": "trend toward clinically significant bleeding"}]}]}
